In patent publication US4229435A, “Preparation of blood fraction” (priority 1978, dated 1980):

What was measured:
Format in all cases: biochemical
Settings in all cases: 5 min 37° C., then iodoacetic acid
[1] = target: T1, F VII (Homo sapiens, UniProt P08709); test: Coagulation factor VII activity in plasma after reducing agent + iodoacetic acid
T1 construct: from tissue; host or cells: human citrated blood plasma
T1 sequence (P08709 61-466): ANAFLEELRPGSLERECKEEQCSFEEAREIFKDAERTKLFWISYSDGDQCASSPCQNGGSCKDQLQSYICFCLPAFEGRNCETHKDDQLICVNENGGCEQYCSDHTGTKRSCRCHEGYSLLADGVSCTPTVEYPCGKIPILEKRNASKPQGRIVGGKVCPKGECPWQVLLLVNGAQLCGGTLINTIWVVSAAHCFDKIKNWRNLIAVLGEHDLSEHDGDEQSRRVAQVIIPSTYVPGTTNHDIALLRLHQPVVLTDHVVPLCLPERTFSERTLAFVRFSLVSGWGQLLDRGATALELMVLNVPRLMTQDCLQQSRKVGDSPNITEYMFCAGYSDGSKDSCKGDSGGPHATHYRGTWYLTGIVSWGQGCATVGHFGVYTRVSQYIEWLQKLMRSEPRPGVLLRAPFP
Procedure: (§1) Human blood with anti-coagulating agent (9 parts blood+1 part 3.8% trisodium citrate) is centrifuged and the following tests with plasma were carried out:
(§2) The plasma is divided into 8 ml portions, which are preheated at 37° C. for 5 min. DTT is added in different concentrations, see table 1 below, and is incubated for 5 min. at 37° C. Then iodoacetic acid, 3 mol per mol DTT, is added, and incubation takes place for 15 min. at 37° C. The plasma samples are distributed in portions of about 0.2 ml and are immediately frozen at -70° C. Testing of different coagulation factors is made in known manner.
(§3) The plasma is divided into 8 ml portions, which are preheated at 37° C. for 5 min. DTE is added in different concentrations (see table 2), and is incubated for 5 minutes at 37° C. Then, iodoacetic acid (3 mol per mol DTE) is added and incubation is carried out for 15 minutes at 37° C. The plasma samples are distributed in portions of about 0.2 ml and are immediately frozen at -70° C. Testing of different coagulation factors is made in a manner known per se.
as §3, with “minutes. Lipoic acid” for “min. DTE”, “3),” for “2),”, “lipoic acid)” for “DTE)”
as §3, with “minutes. Mercaptoethanol” for “min. DTE”, “4),” for “2),”, “mercaptoethanol)” for “DTE)”
as §3, with “minutes. Potassium borohydride” for “min. DTE”, “5,” for “2),”, “potassium borohydride)” for “DTE)”

[2] = target: T2, F XII (Homo sapiens, UniProt P00748); test: Coagulation factor XII activity in plasma after reducing agent + iodoacetic acid
T2 construct: from tissue; host or cells: human citrated blood plasma
T2 sequence (P00748 20-615): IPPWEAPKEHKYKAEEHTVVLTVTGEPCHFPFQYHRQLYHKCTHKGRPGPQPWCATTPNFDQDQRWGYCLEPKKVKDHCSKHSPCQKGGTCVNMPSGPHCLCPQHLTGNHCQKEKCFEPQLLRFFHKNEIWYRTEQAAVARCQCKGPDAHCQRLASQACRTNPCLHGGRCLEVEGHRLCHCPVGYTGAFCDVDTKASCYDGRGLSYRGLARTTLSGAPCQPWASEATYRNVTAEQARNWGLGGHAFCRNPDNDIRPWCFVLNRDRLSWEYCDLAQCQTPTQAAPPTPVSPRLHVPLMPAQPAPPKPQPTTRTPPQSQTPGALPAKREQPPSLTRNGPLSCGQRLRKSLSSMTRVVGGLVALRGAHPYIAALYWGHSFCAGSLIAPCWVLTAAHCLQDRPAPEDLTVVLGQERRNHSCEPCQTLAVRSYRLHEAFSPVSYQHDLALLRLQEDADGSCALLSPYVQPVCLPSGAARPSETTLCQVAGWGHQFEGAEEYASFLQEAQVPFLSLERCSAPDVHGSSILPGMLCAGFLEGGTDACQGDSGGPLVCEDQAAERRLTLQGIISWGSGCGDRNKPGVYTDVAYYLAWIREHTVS
Procedure: as §1, §2, §3
as §3, with “minutes. Lipoic acid” for “min. DTE”, “3),” for “2),”, “lipoic acid)” for “DTE)”
as §3, with “minutes. Mercaptoethanol” for “min. DTE”, “4),” for “2),”, “mercaptoethanol)” for “DTE)”
as §3, with “minutes. Potassium borohydride” for “min. DTE”, “5,” for “2),”, “potassium borohydride)” for “DTE)”

[3] = target: T3, F V (Homo sapiens, UniProt P12259); test: Coagulation factor V activity in plasma after reducing agent + iodoacetic acid
T3 construct: from tissue; host or cells: human citrated blood plasma
T3 sequence (P12259 29-2224): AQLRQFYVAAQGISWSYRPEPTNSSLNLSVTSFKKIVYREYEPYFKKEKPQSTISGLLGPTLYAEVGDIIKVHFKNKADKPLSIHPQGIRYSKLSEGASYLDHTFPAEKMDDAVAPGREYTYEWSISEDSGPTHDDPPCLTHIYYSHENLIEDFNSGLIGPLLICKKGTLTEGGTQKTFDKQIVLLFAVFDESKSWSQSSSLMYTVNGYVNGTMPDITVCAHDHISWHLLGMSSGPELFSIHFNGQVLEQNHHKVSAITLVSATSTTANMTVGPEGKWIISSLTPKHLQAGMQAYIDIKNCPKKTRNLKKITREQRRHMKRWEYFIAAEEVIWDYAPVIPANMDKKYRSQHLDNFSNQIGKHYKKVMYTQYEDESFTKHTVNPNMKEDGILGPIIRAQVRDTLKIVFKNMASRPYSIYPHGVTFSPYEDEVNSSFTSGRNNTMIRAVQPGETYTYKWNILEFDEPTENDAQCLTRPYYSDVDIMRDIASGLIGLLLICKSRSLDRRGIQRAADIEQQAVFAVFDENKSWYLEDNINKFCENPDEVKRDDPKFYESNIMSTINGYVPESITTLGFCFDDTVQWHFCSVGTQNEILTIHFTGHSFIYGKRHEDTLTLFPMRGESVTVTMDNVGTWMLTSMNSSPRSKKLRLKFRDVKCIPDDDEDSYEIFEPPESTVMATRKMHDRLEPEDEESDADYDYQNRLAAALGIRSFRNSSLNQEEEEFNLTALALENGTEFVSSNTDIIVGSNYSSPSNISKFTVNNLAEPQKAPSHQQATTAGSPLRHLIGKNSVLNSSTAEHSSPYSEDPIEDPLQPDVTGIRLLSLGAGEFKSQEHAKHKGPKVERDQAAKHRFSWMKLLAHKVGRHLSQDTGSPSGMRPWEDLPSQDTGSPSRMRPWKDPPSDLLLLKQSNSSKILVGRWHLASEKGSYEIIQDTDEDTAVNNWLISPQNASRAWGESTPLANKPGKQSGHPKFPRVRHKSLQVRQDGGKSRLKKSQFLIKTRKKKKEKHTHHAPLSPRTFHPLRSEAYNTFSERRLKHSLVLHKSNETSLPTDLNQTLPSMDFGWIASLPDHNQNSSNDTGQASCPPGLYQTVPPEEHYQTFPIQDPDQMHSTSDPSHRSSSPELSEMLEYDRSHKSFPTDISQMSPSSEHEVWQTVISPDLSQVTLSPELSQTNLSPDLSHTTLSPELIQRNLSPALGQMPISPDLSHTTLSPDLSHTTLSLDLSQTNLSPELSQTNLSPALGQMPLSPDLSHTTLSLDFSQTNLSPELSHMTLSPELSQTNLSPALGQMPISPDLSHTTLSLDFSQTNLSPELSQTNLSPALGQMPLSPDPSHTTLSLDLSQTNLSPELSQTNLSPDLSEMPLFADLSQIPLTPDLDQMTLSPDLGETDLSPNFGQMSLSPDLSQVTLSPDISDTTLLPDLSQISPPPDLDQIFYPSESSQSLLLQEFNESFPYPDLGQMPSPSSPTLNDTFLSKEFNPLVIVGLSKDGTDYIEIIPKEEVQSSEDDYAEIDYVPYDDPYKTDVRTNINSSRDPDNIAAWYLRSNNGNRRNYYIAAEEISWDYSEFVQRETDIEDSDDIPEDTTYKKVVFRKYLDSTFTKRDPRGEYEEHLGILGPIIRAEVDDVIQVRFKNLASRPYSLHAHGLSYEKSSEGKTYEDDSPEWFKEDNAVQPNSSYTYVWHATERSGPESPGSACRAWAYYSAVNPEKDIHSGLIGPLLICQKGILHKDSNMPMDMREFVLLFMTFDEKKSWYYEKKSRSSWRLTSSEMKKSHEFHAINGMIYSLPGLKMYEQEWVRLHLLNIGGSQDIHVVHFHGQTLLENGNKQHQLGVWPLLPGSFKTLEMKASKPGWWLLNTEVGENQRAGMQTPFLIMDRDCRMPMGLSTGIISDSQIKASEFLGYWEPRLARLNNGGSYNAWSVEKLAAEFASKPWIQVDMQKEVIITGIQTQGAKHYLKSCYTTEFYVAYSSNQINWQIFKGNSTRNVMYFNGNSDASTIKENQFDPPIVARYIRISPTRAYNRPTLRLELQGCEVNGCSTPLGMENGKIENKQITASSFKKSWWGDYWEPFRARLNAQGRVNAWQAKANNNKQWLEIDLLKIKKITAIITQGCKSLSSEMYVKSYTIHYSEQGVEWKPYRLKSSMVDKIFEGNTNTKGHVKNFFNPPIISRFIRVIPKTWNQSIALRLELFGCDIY
Procedure: as §1, §2, §3
as §3, with “minutes. Lipoic acid” for “min. DTE”, “3),” for “2),”, “lipoic acid)” for “DTE)”
as §3, with “minutes. Mercaptoethanol” for “min. DTE”, “4),” for “2),”, “mercaptoethanol)” for “DTE)”
as §3, with “minutes. Potassium borohydride” for “min. DTE”, “5,” for “2),”, “potassium borohydride)” for “DTE)”

[4] = target: T4, F IX (Homo sapiens, UniProt P00740); test: Coagulation factor IX activity in plasma after reducing agent + iodoacetic acid
T4 construct: from tissue; host or cells: human citrated blood plasma
T4 sequence (P00740 47-461): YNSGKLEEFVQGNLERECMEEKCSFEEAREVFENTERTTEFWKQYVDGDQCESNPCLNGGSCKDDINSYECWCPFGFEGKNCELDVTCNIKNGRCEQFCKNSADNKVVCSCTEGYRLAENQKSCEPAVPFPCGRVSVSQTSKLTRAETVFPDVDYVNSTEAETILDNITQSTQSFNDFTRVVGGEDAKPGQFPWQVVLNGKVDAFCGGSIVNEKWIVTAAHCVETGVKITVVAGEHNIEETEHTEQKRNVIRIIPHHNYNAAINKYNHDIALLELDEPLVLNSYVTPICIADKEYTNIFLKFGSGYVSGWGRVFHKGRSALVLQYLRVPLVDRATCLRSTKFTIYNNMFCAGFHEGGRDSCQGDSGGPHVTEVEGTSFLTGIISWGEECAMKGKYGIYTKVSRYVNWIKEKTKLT
Procedure: as §1, §2, §3
as §3, with “minutes. Lipoic acid” for “min. DTE”, “3),” for “2),”, “lipoic acid)” for “DTE)”
as §3, with “minutes. Mercaptoethanol” for “min. DTE”, “4),” for “2),”, “mercaptoethanol)” for “DTE)”
as §3, with “minutes. Potassium borohydride” for “min. DTE”, “5,” for “2),”, “potassium borohydride)” for “DTE)”

[5] = target: T5, F II (Homo sapiens, UniProt P00734); test: Coagulation factor II activity in plasma after reducing agent + iodoacetic acid
T5 construct: from tissue; host or cells: human citrated blood plasma
Procedure: as §1, §2, §3
as §3, with “minutes. Lipoic acid” for “min. DTE”, “3),” for “2),”, “lipoic acid)” for “DTE)”
as §3, with “minutes. Mercaptoethanol” for “min. DTE”, “4),” for “2),”, “mercaptoethanol)” for “DTE)”
as §3, with “minutes. Potassium borohydride” for “min. DTE”, “5,” for “2),”, “potassium borohydride)” for “DTE)”

[6] = target: T6, F XI (Homo sapiens, UniProt P03951); test: Coagulation factor XI activity in plasma after reducing agent + iodoacetic acid
T6 construct: from tissue; host or cells: human citrated blood plasma
T6 sequence (P03951 19-625): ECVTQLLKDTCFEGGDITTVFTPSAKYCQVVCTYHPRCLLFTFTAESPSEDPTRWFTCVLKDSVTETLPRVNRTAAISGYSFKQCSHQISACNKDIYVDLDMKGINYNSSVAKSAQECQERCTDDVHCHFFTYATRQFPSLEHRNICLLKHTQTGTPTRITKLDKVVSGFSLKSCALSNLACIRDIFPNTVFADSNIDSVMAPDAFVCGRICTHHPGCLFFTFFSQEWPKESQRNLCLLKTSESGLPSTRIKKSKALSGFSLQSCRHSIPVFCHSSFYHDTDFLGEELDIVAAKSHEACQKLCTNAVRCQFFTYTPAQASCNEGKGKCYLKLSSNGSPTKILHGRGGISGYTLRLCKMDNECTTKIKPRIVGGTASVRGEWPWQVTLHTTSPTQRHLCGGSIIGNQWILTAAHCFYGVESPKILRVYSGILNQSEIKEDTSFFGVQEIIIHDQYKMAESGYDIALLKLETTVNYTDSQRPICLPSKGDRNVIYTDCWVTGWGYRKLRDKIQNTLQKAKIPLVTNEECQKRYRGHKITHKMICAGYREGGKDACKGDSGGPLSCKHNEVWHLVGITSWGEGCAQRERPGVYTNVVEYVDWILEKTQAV
Procedure: as §1, §2, §3
as §3, with “minutes. Lipoic acid” for “min. DTE”, “3),” for “2),”, “lipoic acid)” for “DTE)”
as §3, with “minutes. Mercaptoethanol” for “min. DTE”, “4),” for “2),”, “mercaptoethanol)” for “DTE)”
as §3, with “minutes. Potassium borohydride” for “min. DTE”, “5,” for “2),”, “potassium borohydride)” for “DTE)”

[7] = target: T7, F X (Homo sapiens, UniProt P00742); test: Coagulation factor X activity in plasma after reducing agent + iodoacetic acid
T7 construct: from tissue; host or cells: human citrated blood plasma
T7 sequence (P00742 235-488 limits assumed): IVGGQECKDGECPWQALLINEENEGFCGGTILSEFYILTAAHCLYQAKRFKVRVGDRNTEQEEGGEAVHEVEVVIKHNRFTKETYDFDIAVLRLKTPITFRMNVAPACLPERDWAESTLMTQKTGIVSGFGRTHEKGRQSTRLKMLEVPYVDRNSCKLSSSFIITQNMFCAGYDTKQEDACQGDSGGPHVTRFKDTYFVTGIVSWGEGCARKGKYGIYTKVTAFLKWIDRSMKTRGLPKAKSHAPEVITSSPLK
T7 sequence (P00742 41-179 limits assumed): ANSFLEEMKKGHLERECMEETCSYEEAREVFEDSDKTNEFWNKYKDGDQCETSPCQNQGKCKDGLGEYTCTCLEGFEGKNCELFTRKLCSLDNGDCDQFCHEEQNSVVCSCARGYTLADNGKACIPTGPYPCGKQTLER
Procedure: as §1, §2, §3
as §3, with “minutes. Lipoic acid” for “min. DTE”, “3),” for “2),”, “lipoic acid)” for “DTE)”
as §3, with “minutes. Mercaptoethanol” for “min. DTE”, “4),” for “2),”, “mercaptoethanol)” for “DTE)”
as §3, with “minutes. Potassium borohydride” for “min. DTE”, “5,” for “2),”, “potassium borohydride)” for “DTE)”

[8] = human, 0.1 mg reducing agent/ml plasma (sample C)
[9] = 0.1 mg reducing agent/ml plasma (sample C)
[10] = human, 0.6 mg reducing agent/ml plasma
[11] = human, Table 1 sample D, 0.1 mg DTT/ml plasma
[12] = plasma + 0.14 mg reducing agent
[13] = plasma + 0.28 mg reducing agent

Compound | activity at 100 µg/mL [1, 8] [%] | Coagulation factor F VII ([1]; plasma + 0.2 mg reducing agent) | Coagulation factor F VII ([1]; plasma + 0.4 mg reducing agent) | activity at 100 µg/mL [2, 8] [%] | Coagulation factor F XII ([2]; plasma + 0.2 mg reducing agent) | Coagulation factor F XII ([2]; plasma + 0.4 mg reducing agent) | Coagulation factor F V [3, 9] | Coagulation factor F V ([3]; plasma + 0.2 mg reducing agent) | Coagulation factor F V ([3]; plasma + 0.4 mg reducing agent) | activity at 100 µg/mL [4, 8] [%] | Coagulation factor F IX ([4]; plasma + 0.2 mg reducing agent) | Coagulation factor F IX ([4]; plasma + 0.4 mg reducing agent) | activity at 100 µg/mL [5, 8] [%] | Coagulation factor F II ([5]; plasma + 0.2 mg reducing agent) | Coagulation factor F II ([5]; plasma + 0.4 mg reducing agent) | activity at 100 µg/mL [6, 8] [%] | Coagulation factor F XI ([6]; plasma + 0.2 mg reducing agent) | Coagulation factor F XI ([6]; plasma + 0.4 mg reducing agent) | activity at 100 µg/mL [7, 8] [%] | Coagulation factor F X ([7]; plasma + 0.4 mg reducing agent) | other results
O[C@H](CS)[C@H](O)CS [DTT, dithiothreitol] | 87 | – | 6 % of control | 78 | – | 0 % of control | 94 % of control | – | 85 % of control | 129 | – | 8 % of control | 101 | – | 41 % of control | 47 | – | 0 % of control | 59 | 0 % of control | activity at 600 µg/mL [1, 10]: 0%; activity at 100 µg/mL [1, 11]: 21%; activity at 600 µg/mL [2, 10]: 0%; activity at 100 µg/mL [2, 11]: 18%; Coagulation factor F V ([3]; 0.6 mg reducing agent/ml plasma): 90 % of control; Coagulation factor F V ([3]; Table 1 sample D, 0.1 mg DTT/ml plasma): 90 % of control; activity at 600 µg/mL [4, 10]: 0%; activity at 100 µg/mL [4, 11]: 16%; activity at 600 µg/mL [5, 10]: 33%; activity at 100 µg/mL [5, 11]: 69%; activity at 600 µg/mL [6, 10]: 0%; activity at 100 µg/mL [6, 11]: 9%; activity at 600 µg/mL [7, 10]: 0%; activity at 100 µg/mL [7, 11]: 6%
[BH4-].[K+] [KBH4, potassium borohydride] | – | – | – | – | – | – | – | – | – | – | – | – | – | – | – | – | – | – | – | – | Coagulation factor F VII [1, 12]: 131 % of control; Coagulation factor F VII [1, 13]: 127 % of control; Coagulation factor F XII [2, 12]: 86 % of control; Coagulation factor F XII [2, 13]: 83 % of control; Coagulation factor F V [3, 12]: 74 % of control; Coagulation factor F V [3, 13]: 93 % of control; Coagulation factor F IX [4, 12]: 77 % of control; Coagulation factor F IX [4, 13]: 71 % of control; Coagulation factor F II [5, 12]: 92 % of control; Coagulation factor F II [5, 13]: 96 % of control; Coagulation factor F XI [6, 12]: 94 % of control; Coagulation factor F XI [6, 13]: 107 % of control; Coagulation factor F X [7, 12]: 86 % of control; Coagulation factor F X [7, 13]: 68 % of control
OCCS [mercaptoethanol] | – | 69 % of control | 29 % of control | – | 102 % of control | 121 % of control | – | 61 % of control | 84 % of control | – | 33 % of control | 35 % of control | – | 89 % of control | 74 % of control | – | 74 % of control | 62 % of control | – | 37 % of control | Coagulation factor F X ([7]; plasma + 0.2 mg reducing agent): 75 % of control

Further lines, with some results ahead:

activity at 100 µg/mL [1, 8] [%] | Coagulation factor F VII ([1]; plasma + 0.2 mg reducing agent) | Coagulation factor F VII ([1]; plasma + 0.4 mg reducing agent) | activity at 100 µg/mL [2, 8] [%] | Coagulation factor F XII ([2]; plasma + 0.2 mg reducing agent) | Coagulation factor F XII ([2]; plasma + 0.4 mg reducing agent) | Coagulation factor F V [3, 9] | Coagulation factor F V ([3]; plasma + 0.2 mg reducing agent) | Coagulation factor F V ([3]; plasma + 0.4 mg reducing agent) | activity at 100 µg/mL [4, 8] [%] | Coagulation factor F IX ([4]; plasma + 0.2 mg reducing agent) | Coagulation factor F IX ([4]; plasma + 0.4 mg reducing agent) | activity at 100 µg/mL [5, 8] [%] | Coagulation factor F II ([5]; plasma + 0.2 mg reducing agent) | Coagulation factor F II ([5]; plasma + 0.4 mg reducing agent) | activity at 100 µg/mL [6, 8] [%] | Coagulation factor F XI ([6]; plasma + 0.2 mg reducing agent) | Coagulation factor F XI ([6]; plasma + 0.4 mg reducing agent) | activity at 100 µg/mL [7, 8] [%] | Coagulation factor F X ([7]; plasma + 0.4 mg reducing agent) | Compound | other results
61 | 30 % of control | 48 % of control | 78 | 1 % of control | 0 % of control | 99 % of control | 99 % of control | 90 % of control | 61 | 28 % of control | 19 % of control | 90 | 66 % of control | 35 % of control | 66 | 3 % of control | 0 % of control | 56 | 2 % of control | O[C@H](CS)[C@@H](O)CS [DTE, dithioerythritol] | Coagulation factor F X ([7]; plasma + 0.2 mg reducing agent): 11 % of control
252 | 203 % of control | 285 % of control | 74 | 78 % of control | 98 % of control | 100 % of control | 91 % of control | 215 % of control | 58 | 52 % of control | 58 % of control | 100 | 103 % of control | 103 % of control | 67 | 32 % of control | 39 % of control | 40 | 32 % of control | O=C(O)CCCCC1CCSS1 (centres unmarked) [lipoic acid] | Coagulation factor F X ([7]; plasma + 0.2 mg reducing agent): 26 % of control
